# According to article PMC12029179, “6-Chlorocoumarin Conjugates with Nucleobases and Nucleosides as Potent Anti-Hepatitis C Virus Agents” (Molecules, 2025):
# Where two headings read alike, the source gives them in different places. Numbered stars: 1 amine (or outer) side, 2 acyl side, 3 side chain; on linkers, the order of the positions; unused ones are H or OH. Bridge positions count the residues as written; N and C are the ends. Square brackets hold non-standard residues; d marks the D form. Peptide text beside a SMILES is read from it. I, II: the chains in the order shown. Actinocin(9to1) = Cc1c2oc3c(C)ccc(C(=O)[*:1])c3nc-2c(C(=O)[*:2])c(N)c1=O; NMeV = CN[C@H](C(=O)O)C(C)C; Sar = CNCC(=O)O
# Experiments:
# Detroit 551 cells = assay: Cell viability (MTS) assay in Detroit 551 cells; assay type: cell-based; settings: for IC50: Homo sapiens, read-out: IC50 (cell survival rate of 50%); for cell death at highest tested concentration: 20 μM
# Experimental: Detroit 551 cells, a human fibroblast cell line, are routinely employed to assess both acute and chronic toxicity in normal human cells. Evaluating the cytotoxicity of compounds in Detroit 551 cells helps to identify potential safety concerns early in drug development. The three promising leads, 7a, 7b, and 18, were tested in a Detroit 551 assay using the antineoplastic and antibiotic agent actinomycin D as a positive control.
# Detroit 551 cells were harvested and seeded into a 96-well plate, then incubated at 37 °C for 24 h. A serial dilution of the test compound was prepared in eight three-fold concentrations (20,000 nM, 6667 nM, 2222 nM, 741 nM, 247 nM, 82 nM, 27 nM, and 9 nM), and 10 µL of each dilution was added to the corresponding wells. The plate was then returned to 37 °C for an additional 72 h of incubation. After this incubation, a 3-(4,5-dimethylthiazol-2-yl)-5-(3-carboxymethoxyphenyl)-2-(4-sulfophenyl)-2H-tetrazolium (MTS) assay medium (mixed in a 2:0.1 ratio of MTS–phenazine methyl sulfate (PMS)) was prepared. The plate was moved to a biological safety cabinet, and 21 µL of the MTS medium was added to each well. The plate was then incubated at 37 °C for 90 min before absorbance was measured at 490 nm on a Victor 2 plate reader (PerkinElmer, Inc., Waltham, MA, USA). Data were subsequently analyzed to assess cytotoxicity.
# [1] = Host-cell metabolic activity in Huh 9-13 cells; assay type: cell-based; settings: human
# Huh 9-13 cells = assay: Host-cell metabolic activity in Huh 9-13 cells; assay type: cell-based
# [2] = system: HCV genotype 1b subgenomic replicon; assay: Anti-HCV assay in Huh 5-2 cells (luciferase replicon readout); assay type: cell-based, hepatitis C virus (HCV); settings: for EC50: Huh-5-2, Huh 5-2 cells, luminescence
# Description: (§1) An evaluation of the antiviral effects of the conjugated compounds was initially performed in Huh 5-2 cells utilizing the HCV genotype 1b subgenomic replicon system, based on previously reported procedures. By analyzing the dose–response curves, we calculated the concentration of each compound that inhibited the viral replication by 50% (EC50) and the concentration that reduced the host-cell metabolic activity by 50% (CC50). These values were then used to compute the selectivity index (SI = CC50/EC50), which serves as an indicator of a compound’s therapeutic window. Even if an EC50 was determined from the dose–response curve in the antiviral assay, the compounds that were evaluated may not qualify as promising hits. […] It is likely that the antiviral activity observed in the other compounds is due to their nonspecific or pleiotropic effects on the host cell.
# Huh 5-2 cells were plated in white, tissue culture-treated 96-well view plates (Packard, Canberra, Canada) at a density of 5 × 10^3 cells per well, using complete Dulbecco’s Modified Eagle Medium (DMEM) containing 250 µg/mL G418. Following 24 h incubation at 37 °C with 5% CO2, the medium was discarded and serial 3-fold dilutions of the test compounds—prepared in complete DMEM lacking G418—were added to reach a final volume of 100 µL per well. After an additional 4-day incubation period under the same conditions, the medium was removed, and luciferase activity was assessed using the Steady-Glo luciferase assay kit (Promega, Leiden, The Netherlands). Luminescence was measured with a Luminoskan Ascent reader (Thermo, Vantaa, Finland). The EC50 value was determined as the compound concentration resulting in a 50% decrease in luciferase signal.
# HCV subgenomic replicon = assay: Anti-HCV assay in Huh 9-13 cells (real-time quantitative RT-PCR of replicon RNA); assay type: cell-based, hepatitis C virus (HCV); settings: for % replicon RNA: normalized against no-drug control; for EC50: Hepatitis C virus
# Experimental: Furthermore, the antiviral activity of three of the hits (i.e., 7a, 7b, and 18) was validated by evaluation of the dose–response effect of treatment with the compounds at the level of viral RNA replication in the Huh 9-13 assay system. The real-time quantitative RT-PCR readout was used.
# Huh 9-13 cells were seeded at 5 × 10^3 cells per well into 96-well plates containing complete DMEM supplemented with 1000 µg/mL G418. […] After 4 days of incubation, the culture medium was removed, and the cell monolayers were washed once with phosphate-buffered saline (PBS). Cells were then lysed using 350 µL of RLT buffer (Qiagen, Venlo, The Netherlands) as per the manufacturer’s protocol, and the lysates were stored at −80 °C for future analysis. Upon completion of sample collection, RNA was extracted, and the samples were analyzed through quantitative real-time PCR to measure their HCV replicon content. The real-time RT-PCR data for all samples were calibrated against the “no-drug control”.
# * After collection of all samples, RNA was extracted and samples were analyzed by quantitative real-
# time PCR for their HCV replicon content. Real-time RT-PCR values of all assayed samples were
# normalized against the “no-drug control”.
# [3] = Host-cell metabolic activity (MTS assay) in Huh 5-2 cells; assay type: cell-based; settings: human
# Description: as §1
# [4] = compound 18 tested starting at 125 µg/mL
# [5] = Hepatitis C virus, primary screening, tested starting at 50 μg/mL
# [6] = Hepatitis C virus, secondary screen starting at 125 μg/mL, average of triplicate
# [7] = Huh 5-2 cells, primary screening starting at 50 μg/mL
# [8] = Huh 5-2 cells, secondary screen starting at 125 μg/mL
# [9] = real-time quantitative RT-PCR readout
# [10] = Detroit 551 cells, 72 h incubation, tested starting at 20.0 μM
# [11] = primary screening, tested starting at 50 μg/mL
# [12] = secondary screen starting at 125 μg/mL
compound,measurement,setting,value
"Cc1c2oc3c(C)ccc(C(=O)N[C@@H]4C(=O)N[C@H](C(C)C)C(=O)N5CCC[C@H]5C(=O)N(C)CC(=O)N(C)[C@@H](C(C)C)C(=O)O[C@@H]4C)c3nc-2c(C(=O)N[C@@H]2C(=O)N[C@H](C(C)C)C(=O)N3CCC[C@H]3C(=O)N(C)CC(=O)N(C)[C@@H](C(C)C)C(=O)O[C@@H]2C)c(N)c1=O [Actinomycin D, actinomycin D, reference compound] (I: T[dV]P[Sar][NMeV] / II: T[dV]P[Sar][NMeV]; ester I:1-I:C, II:1-II:C; linker I:N-II:N via Actinocin(9to1))",IC50,"Detroit 551 cells; Detroit 551, 72 h",15.4 µM
"O=c1oc2ccc(Cl)cc2cc1CSc1ncnc2[nH]cnc12 [Compound 7a, 6-[(6′-Chlorocoumarin-3′-yl)methylthio]purine]",CC50,[1]; [4],> 145 µM
same,CC50,[1]; supplement dose-response data,> 50 µg/mL
same,% cell metabolism,Huh 9-13 cells; 0.023 µg/ml,109%
same,% cell metabolism,Huh 9-13 cells; 0.069 µg/ml,104%
same,% cell metabolism,Huh 9-13 cells; 0.206 µg/ml,109%
same,% cell metabolism,Huh 9-13 cells; 0.617 µg/ml,105%
same,% cell metabolism,Huh 9-13 cells; 5.56 µg/ml,112%
same,% cell metabolism,Huh 9-13 cells; 16.67 µg/ml,115%
same,% cell metabolism,Huh 9-13 cells; 50 µg/ml,92%
same,% cell metabolism,Huh 9-13 cells; 1.852 (7b: 1.85) µg/ml,109%
same,EC50,[2]; [5],8.6 µM
same,EC50,[2]; [6],4.8 µM
same,SI (CC50/EC50),[2]; [7],>17
same,SI (CC50/EC50),[2]; [8],>76
same,SI (CC50/EC50),HCV subgenomic replicon,>20
same,"Quantity (HCV replicon RNA, real-time PCR)",HCV subgenomic replicon; 0.023 µg/ml,1.12E-04
same,% replicon RNA,HCV subgenomic replicon; 0.023 µg/ml,93%
same,"Quantity (HCV replicon RNA, real-time PCR)",HCV subgenomic replicon; 0.069 µg/ml,1.44E-04
same,% replicon RNA,HCV subgenomic replicon; 0.069 µg/ml,119%
same,"Quantity (HCV replicon RNA, real-time PCR)",HCV subgenomic replicon; 0.206 µg/ml,1.36E-04
same,% replicon RNA,HCV subgenomic replicon; 0.206 µg/ml,112%
same,"Quantity (HCV replicon RNA, real-time PCR)",HCV subgenomic replicon; 0.617 µg/ml,8.96E-05
same,% replicon RNA,HCV subgenomic replicon; 0.617 µg/ml,74%
same,"Quantity (HCV replicon RNA, real-time PCR)",HCV subgenomic replicon; 5.56 µg/ml,2.70E-05
same,% replicon RNA,HCV subgenomic replicon; 5.56 µg/ml,22%
same,"Quantity (HCV replicon RNA, real-time PCR)",HCV subgenomic replicon; 16.67 µg/ml,1.20E-05
same,% replicon RNA,HCV subgenomic replicon; 16.67 µg/ml,10%
same,"Quantity (HCV replicon RNA, real-time PCR)",HCV subgenomic replicon; 50 µg/ml,4.54E-06
same,% replicon RNA,HCV subgenomic replicon; 50 µg/ml,4%
same,"Quantity (HCV replicon RNA, real-time PCR)",HCV subgenomic replicon; 1.852 (7b: 1.85) µg/ml,7.41E-05
same,% replicon RNA,HCV subgenomic replicon; 1.852 (7b: 1.85) µg/ml,61%
same,EC50,HCV subgenomic replicon; [9],7.3 µM
same,EC50,HCV subgenomic replicon; supplement dose-response data,2.5 µg/mL
same,cell death at highest tested concentration,Detroit 551 cells; Detroit 551 cells,none of the three compounds induced cell death
same,IC50,Detroit 551 cells; [10],> 20 µM
same,CC50,[3]; [11],> 145 µM
same,CC50,[3]; [12],> 363 µM
"O=c1ccnc(SCc2cc3cc(Cl)ccc3oc2=O)[nH]1 [Compound 18, 2-[(6′-Chlorocoumarin-3′-yl)methylthio]uracil]",CC50,[1]; [4],> 390 µM
same,CC50,[1]; supplement dose-response data,> 125 µg/mL
same,% cell metabolism,Huh 9-13 cells; 0.977 µg/ml,103%
same,% cell metabolism,Huh 9-13 cells; 1.953 µg/ml,92%
same,% cell metabolism,Huh 9-13 cells; 3.906 µg/ml,109%
same,% cell metabolism,Huh 9-13 cells; 7.813 µg/ml,101%
same,% cell metabolism,Huh 9-13 cells; 15.625 µg/ml,98%
same,% cell metabolism,Huh 9-13 cells; 31.25 µg/ml,103%
same,% cell metabolism,Huh 9-13 cells; 62.50 µg/ml,99%
same,% cell metabolism,Huh 9-13 cells; 125 µg/ml,104%
same,EC50,[2]; [5],48 µM
same,EC50,[2]; [6],87 µM
same,inhibition at 125 µg/mL,"[2]; Hepatitis C virus, Huh 5-2 cells, at 125 μg/mL",> 90%
same,SI (CC50/EC50),[2]; [7],>3.2
same,SI (CC50/EC50),[2]; [8],>4.5
same,SI (CC50/EC50),HCV subgenomic replicon,>41
same,"Quantity (HCV replicon RNA, real-time PCR)",HCV subgenomic replicon; 0.977 µg/ml,2.11E-03
same,% replicon RNA,HCV subgenomic replicon; 0.977 µg/ml,66%
same,"Quantity (HCV replicon RNA, real-time PCR)",HCV subgenomic replicon; 1.953 µg/ml,2.06E-03
same,% replicon RNA,HCV subgenomic replicon; 1.953 µg/ml,64%
same,"Quantity (HCV replicon RNA, real-time PCR)",HCV subgenomic replicon; 3.906 µg/ml,1.40E-03
same,% replicon RNA,HCV subgenomic replicon; 3.906 µg/ml,44%
same,"Quantity (HCV replicon RNA, real-time PCR)",HCV subgenomic replicon; 7.813 µg/ml,1.12E-03
same,% replicon RNA,HCV subgenomic replicon; 7.813 µg/ml,35%
same,"Quantity (HCV replicon RNA, real-time PCR)",HCV subgenomic replicon; 15.625 µg/ml,4.59E-04
same,% replicon RNA,HCV subgenomic replicon; 15.625 µg/ml,14%
same,"Quantity (HCV replicon RNA, real-time PCR)",HCV subgenomic replicon; 31.25 µg/ml,2.30E-04
same,% replicon RNA,HCV subgenomic replicon; 31.25 µg/ml,7%
same,"Quantity (HCV replicon RNA, real-time PCR)",HCV subgenomic replicon; 62.50 µg/ml,6.77E-05
same,% replicon RNA,HCV subgenomic replicon; 62.50 µg/ml,2%
same,"Quantity (HCV replicon RNA, real-time PCR)",HCV subgenomic replicon; 125 µg/ml,4.20E-05
same,% replicon RNA,HCV subgenomic replicon; 125 µg/ml,1%
same,EC50,HCV subgenomic replicon; [9],9.4 µM
same,EC50,HCV subgenomic replicon; supplement dose-response data,3 µg/mL
same,cell death at highest tested concentration,Detroit 551 cells; Detroit 551 cells,none of the three compounds induced cell death
same,IC50,Detroit 551 cells; [10],> 20 µM
same,CC50,[3]; [11],> 156 µM
same,CC50,[3]; [12],> 390 µM
